# Assay results as given in patent US20180311342A1, “IMMUNOSTIMULATING AGENT” (AJINOMOTO CO., INC., priority 2017, published 2018).
# How the values were obtained:
# Format in all cases: in vivo, BALB/c mice
# [1] = tested on: anti-OVA-specific IgG1 and IgG2a subclass antibody production; assay: Evaluation test of adjuvant activity (overall conclusion from anti-OVA IgG1 and IgG2a production); settings: compound 0.256 μmol in 5% αCD-added saline with OVA 5 μg, dorsal-subcutaneous
# Protocol: 8-Week-old female BALB/c mice were divided into groups (N=6), and each group was primarily immunized by dorsal-subcutaneous administration of (1) ovalbumin (OVA) (5 μg) dissolved in saline as an antigen (OVA single administration group), (2) OVA 5 μg and Addavax™ (mixed with saline at 1:1) dissolved in saline (Addavax™ administration group) as positive control adjuvant, (3) OVA 5 μg and SZ137 0.256 μmol dissolved or dispersed in 5% α-cyclodextrin (hereinafter to be simply referred to as αCD)-added saline (SZ137 administration group), (4) OVA (5 μg) and SZ138 (0.256 μmol) dissolved or dispersed in 5% αCD-added saline (SZ138 administration group), (5) OVA (5 μg) and SZ142 (0.256 μmol) dissolved or dispersed in 5% αCD-added saline (SZ142 administration group), (6) OVA (5 μg) and SZ144 (0.256 μmol) dissolved or dispersed in 5% αCD-added saline (SZ144 administration group), (7) OVA (5 μg) and SZ145 (0.256 μmol) dissolved or dispersed in 5% αCD-added saline (SZ145 administration group), (8) OVA (5 μg) and SZ146 (0.256 μmol) dissolved or dispersed in 5% αCD-added saline (SZ146 administration group), (9) OVA (5 μg) and SZ147 (0.256 μmol) dissolved or dispersed in 5% αCD-added saline (SZ147 administration group), (10) OVA (5 μg) and SZ148 (0.256 μmol) dissolved or dispersed in 5% αCD-added saline (SZ148 administration group), each per mouse. Two week later, the secondary immunization was carried out by dorsal-subcutaneous administration of solutions or dispersions similar to those of the above-mentioned (1)-(10) again. […]
# To a 96 well plate was added 5 μg/ml OVA at 100 µl/well, and the mixture was incubated at 4° C. overnight. After incubation, the mixture was washed three times with 200 μl of PBS-T (PBS (phosphate buffered saline)+0.05% (v/v) Tween 20) per well, and blocked with 100 μl of 5% FCS (fetal calf serum)/PBS solution per well at room temperature for 1-2 hr. Thereafter, the mixture was washed three times with PBS-T (200 μl/well), a diluted serum sample (100 l/well) or the same amount of 5% FCS/PBS solution as a control was added, and the mixture was incubated at 37° C. for 1 hr. To calculate concentration of the antibody, the standard of an anti-OVA-specific IgG1 subclass antibody diluted with 2% FCS/PBS solution was added at 100 ng/ml, 50 ng/ml, 25 ng/ml, 12.5 ng/ml, 6.25 ng/ml, 3.125 ng/ml, 1.56 ng/ml, 0.781 ng/ml, 0.391 ng/ml, 0.195 ng/ml, 0.098 ng/ml, 0 ng/ml, per 1 well. When an anti-OVA-specific IgG2a subclass antibody was measured, the standard of an anti-OVA-specific IgG2a subclass antibody was added at 50 ng/ml, 25 ng/ml, 12.5 ng/ml, 6.25 ng/ml, 3.125 ng/ml, 1.56 ng/ml, 0.781 ng/ml, 0.391 ng/ml, 0.195 ng/ml, 0.098 ng/ml, 0.049 ng/ml, 0 ng/ml, per 1 well. Thereafter, similar to the samples, the mixture was washed five times with PBS-T (200 μl/well), a diluted biotinylated anti-mouse IgG1 antibody and IgG2a antibody were added (100 μl/well), and the mixture was incubated at 37° C. for 45 min. Thereafter, the mixture was washed five times with PBS-T (200 μl/well), a diluted anti-biotin-HRP antibody was added (100 μl/well), and the mixture was incubated at 37° C. for another 30 min. Thereafter, the mixture was washed five times with PBS-T (200 μl/well), TMB substrate solution was added (100 μl/well), and the mixture was incubated at room temperature for 10-15 min. Thereafter, a reaction quenching liquid (2N sulfuric acid solution) was added (50 l/well) to discontinue a color developing reaction, and the absorbance (OD Value=450 nm) was measured by a microplate reader. A standard curve was drawn from the measured OD values, and the concentration was calculated. […]
# [2] = tested on: anti-OVA-specific IgG2a subclass antibody; assay: Adjuvant activity test: anti-OVA-specific IgG2a subclass antibody in serum of OVA-immunized mice (ELISA); settings: after primary immunization, serum 2 weeks later; OVA 5 μg + compound 0.256 μmol in 5% αCD-added saline (Addavax mixed with saline at 1:1), dorsal-subcutaneous; compared to OVA single administration group
# [3] = tested on: anti-OVA-specific IgG1 subclass antibody; assay: Adjuvant activity test: anti-OVA-specific IgG1 subclass antibody in serum of OVA-immunized mice (ELISA); settings: after primary immunization, serum 2 weeks later; OVA 5 μg + compound 0.256 μmol in 5% αCD-added saline (Addavax mixed with saline at 1:1), dorsal-subcutaneous; compared to OVA single administration group
# [4] = conclusion from IgG1/IgG2a after primary immunization
SMILES,"adjuvant activity [1, 4]",anti-OVA-specific IgG2a subclass antibody production [2],anti-OVA-specific IgG1 subclass antibody production [3],adjuvant activity ([1]; conclusion from IgG1/IgG2a after secondary immunization)
"CCCCCCCCCCCCNC(=O)[C@H](CCCNC(=N)N)NC(=O)C(=O)CCCCCC.Cl [SZ177, N-[(1S)-1-(dodecylcarbamoyl)-4-guanidino-butyl]-2-oxo-octanamide]",have an adjuvant activity,significantly increased,tended to increase,–
"CCCCCCCCCCCCCCCC(=O)NCCCCCNC(=N)N [SZ175, N-(5-guanidinopentyl)hexadecanamide]",have an adjuvant activity,significantly increased,tended to increase,–
"CCCCCCCCCCCCNC(=O)[C@H](CCCNC(=N)N)N(Cc1ccccc1)Cc1ccccc1 [SZ174, (2S)-2-(Dibenzylamino)-N-dodecyl-5-guanidino-pentanamide]",have an adjuvant activity,significantly increased,tended to increase,–
"CCCCCCCCCCCCCCCCCCOC(=O)N[C@@H](CCCNC(=N)N)C(=O)NCCCCCCCCCCCC.Cl [SZ186, octadecyl N-[(1S)-1-(dodecylcarbamoyl)-4-guanidino-butyl]carbamate hydrochloride]",have an adjuvant activity,significant enhancement,significant enhancement,have an adjuvant activity
"CCCCCCCCCCCCCCCCCCCCCC(=O)NCCCCCNC(=N)N.Cl [SZ176, N-(5-guanidinopentyl)docosanamide]",have an adjuvant activity,significantly increased,tended to increase,–
"CCCCCCCCCCCCCCCCCCCCCC(=O)N[C@@H](CSSC[C@H](NC(=O)CCCCCCCCCCCCCCCCCCCCC)C(=O)NCCCCCCCCCCCC)C(=O)NCCCCCCCCCCCC [SZ173, N-[(1R)-1-[[[(2R)-2-(docosanoylamino)-3-(dodecylamino)-3-oxo-propyl]disulfanyl]methyl]-2-(dodecylamino)-2-oxo-ethyl]docosanamide]",has an adjuvant activity,significantly increased,showed a tendency to increase,–
